# “And” between values parts separate entries of the source, which are not always exact repeats. Equal values may be shown once. The source made the active and inactive calls. The calls are words filed in the database; no cut-off is given here.
# Tests used:
# Mus musculus [1] = assay: Reduction of visceral fat in ddY mouse at 10 mg/kg/day, po after 14 to 15 days; type: functional
# Mus musculus [2] = assay: Effect on total plasma cholesterol in ddY mouse at 10 mg/kg/day, po after 14 to 15 days; type: functional
# Mus musculus [3] = assay: Reduction of epididymal fat in ddY mouse at 10 mg/kg/day, po after 14 to 15 days; type: functional
# Mus musculus [4] = assay: Effect on free fatty acid in ddY mouse plasma at 10 mg/kg/day, po after 14 to 15 days; type: functional
# Mus musculus [5] = assay: Effect on plasma triglyceride in ddY mouse at 10 mg/kg/day, po after 14 to 15 days; type: functional
# Mus musculus [6] = assay: Effect on liver triglyceride in ddY mouse at 10 mg/kg/day, po after 14 to 15 days; type: functional
# Mus musculus [7] = assay: Effect on liver weight in ddY mouse at 10 mg/kg/day, po after 14 to 15 days; type: functional
# Mus musculus [8] = assay: Reduction of paranephric fat in ddY mouse at 10 mg/kg/day, po after 14 to 15 days; type: functional
# Mus musculus [9] = assay: Reduction of mesenteric fat in ddY mouse at 10 mg/kg/day, po after 14 to 15 days; type: functional
# Mus musculus [10] = assay: Effect on food intake in ddY mouse at 10 mg/kg/day, po after 14 to 15 days; type: functional
# Mus musculus [11] = assay: Effect on D-glucose level in ddY mouse plasma at 0.1 to 10 mg/kg/day for 15 days; type: functional
# Mus musculus [12] = assay: Reduction of visceral fat in ddY mouse at 12.5 mg/kg/day, po after 14 to 15 days; type: functional
# Mus musculus [13] = assay: Effect on food intake in ddY mouse at 12.5 mg/kg/day, po after 14 to 15 days; type: functional
# Mus musculus [14] = assay: Reduction of visceral fat in ddY mouse at 1 mg/kg/day, po after 14 to 15 days; type: functional
# Mus musculus [15] = assay: Effect on total plasma cholesterol in ddY mouse at 0.1 mg/kg/day, po after 14 to 15 days; type: functional
# Mus musculus [16] = assay: Reduction of mesenteric fat in ddY mouse at 25 mg/kg/day, po after 14 to 15 days; type: functional
# Mus musculus [17] = assay: Reduction of epididymal fat in ddY mouse at 50 mg/kg/day, po after 14 to 15 days; type: functional
# Mus musculus [18] = assay: Reduction of paranephric fat in ddY mouse at 1 mg/kg/day, po after 14 to 15 days; type: functional
# Mus musculus [19] = assay: Effect on plasma triglyceride in ddY mouse at 50 mg/kg/day, po after 14 to 15 days; type: functional
# Mus musculus [20] = assay: Reduction of epididymal fat in ddY mouse at 25 mg/kg/day, po after 14 to 15 days; type: functional
# Mus musculus [21] = assay: Effect on food intake in ddY mouse at 0.1 mg/kg/day, po after 14 to 15 days; type: functional
# Mus musculus [22] = assay: Effect on total plasma cholesterol in ddY mouse at 50 mg/kg/day, po after 14 to 15 days; type: functional
# Mus musculus [23] = assay: Reduction of paranephric fat in ddY mouse at 50 mg/kg/day, po after 14 to 15 days; type: functional
# Liver = assay: Increase in expression of PPAR alpha mRNA level in liver tissue of orally dosed ddY mouse, after 24 hrs; type: functional, organism-based
# Mus musculus [24] = assay: Reduction of epididymal fat in ddY mouse at 0.1 mg/kg/day, po after 14 to 15 days; type: functional
# Mus musculus [25] = assay: Effect on free fatty acid in ddY mouse plasma at 12.5 mg/kg/day, po after 14 to 15 days; type: functional
# Mus musculus [26] = assay: Effect on food intake in ddY mouse at 1 mg/kg/day, po after 14 to 15 days; type: functional
# Mus musculus [27] = assay: Effect on liver weight in ddY mouse at 1 mg/kg/day, po after 14 to 15 days; type: functional
# Mus musculus [28] = assay: Reduction of visceral fat in ddY mouse at 50 mg/kg/day, po after 14 to 15 days; type: functional
# Mus musculus [29] = assay: Effect on free fatty acid in ddY mouse plasma at 1 mg/kg/day, po after 14 to 15 days; type: functional
# Mus musculus [30] = assay: Reduction of mesenteric fat in ddY mouse at 0.1 mg/kg/day, po after 14 to 15 days; type: functional
# Mus musculus [31] = assay: Effect on food intake in ddY mouse at 50 mg/kg/day, po after 14 to 15 days; type: functional
# Mus musculus [32] = assay: Effect on liver triglyceride in ddY mouse at 12.5 mg/kg/day, po after 14 to 15 days; type: functional
# Mus musculus [33] = assay: Effect on total plasma cholesterol in ddY mouse at 1 mg/kg/day, po after 14 to 15 days; type: functional
# Mus musculus [34] = assay: Effect on liver weight in ddY mouse at 0.1 mg/kg/day, po after 14 to 15 days; type: functional
# Mus musculus [35] = assay: Reduction of paranephric fat in ddY mouse at 12.5 mg/kg/day, po after 14 to 15 days; type: functional
# Mus musculus [36] = assay: Reduction of visceral fat in ddY mouse at 0.1 mg/kg/day, po after 14 to 15 days; type: functional
# Mus musculus [37] = assay: Reduction of mesenteric fat in ddY mouse at 1 mg/kg/day, po after 14 to 15 days; type: functional
# Mus musculus [38] = assay: Reduction of mesenteric fat in ddY mouse at 50 mg/kg/day, po after 14 to 15 days; type: functional
# Mus musculus [39] = assay: Effect on total plasma cholesterol in ddY mouse at 12.5 mg/kg/day, po after 14 to 15 days; type: functional
# Mus musculus [40] = assay: Effect on liver triglyceride in ddY mouse at 50 mg/kg/day, po after 14 to 15 days; type: functional
# Mus musculus [41] = assay: Effect on liver weight in ddY mouse at 50 mg/kg/day, po after 14 to 15 days; type: functional
# Mus musculus [42] = assay: Effect on plasma triglyceride in ddY mouse at 1 mg/kg/day, po after 14 to 15 days; type: functional
# Mus musculus [43] = assay: Reduction of epididymal fat in ddY mouse at 12.5 mg/kg/day, po after 14 to 15 days; type: functional
# Mus musculus [44] = assay: Effect on liver triglyceride in ddY mouse at 0.1 mg/kg/day, po after 14 to 15 days; type: functional
# Mus musculus [45] = assay: Reduction of visceral fat in ddY mouse at 25 mg/kg/day, po after 14 to 15 days; type: functional
# Mus musculus [46] = assay: Effect on free fatty acid in ddY mouse plasma at 0.1 mg/kg/day, po after 14 to 15 days; type: functional
# Mus musculus [47] = assay: Effect on liver weight in ddY mouse at 12.5 mg/kg/day, po after 14 to 15 days; type: functional
# Mus musculus [48] = assay: Effect on liver triglyceride in ddY mouse at 1 mg/kg/day, po after 14 to 15 days; type: functional
# Mus musculus [49] = assay: Effect on liver weight in ddY mouse at 25 mg/kg/day, po after 14 to 15 days; type: functional
# Mus musculus [50] = assay: Effect on plasma triglyceride in ddY mouse at 0.1 mg/kg/day, po after 14 to 15 days; type: functional
# Mus musculus [51] = assay: Effect on food intake in ddY mouse at 25 mg/kg/day, po after 14 to 15 days; type: functional
# Mus musculus [52] = assay: Reduction of paranephric fat in ddY mouse at 0.1 mg/kg/day, po after 14 to 15 days; type: functional
# Mus musculus [53] = assay: Effect on free fatty acid in ddY mouse plasma at 50 mg/kg/day, po after 14 to 15 days; type: functional
# Mus musculus [54] = assay: Effect on plasma triglyceride in ddY mouse at 12.5 mg/kg/day, po after 14 to 15 days; type: functional
# Mus musculus [55] = assay: Reduction of epididymal fat in ddY mouse at 1 mg/kg/day, po after 14 to 15 days; type: functional
# Mus musculus [56] = assay: Reduction of mesenteric fat in ddY mouse at mg/kg/day, po after 14 to 15 days; type: functional
# Mus musculus [57] = assay: Reduction of paranephric fat in ddY mouse at 25 mg/kg/day, po after 14 to 15 days; type: functional
structure (smiles),measurement,setting,value
O=c1c(O[C@@H]2O[C@H](CO)[C@@H](O)[C@H](O)[C@H]2O)c(-c2ccc(O)cc2)oc2cc(O)cc(O)c12 [ASTRAGALIN],Activity,Mus musculus [1],1770 mg
same,Activity,Mus musculus [2],119 mg/dL
same,Activity,Mus musculus [3],797 mg
same,Activity,Mus musculus [4],1.7 mEq/L
same,Activity,Mus musculus [5],113 mg/dL
same,Activity,Mus musculus [6],64.8 mg/g
same,Activity,Mus musculus [7],1640 mg
same,Activity,Mus musculus [8],293 mg
same,Activity,Mus musculus [9],680 mg
same,Activity,Mus musculus [10],4.34 g/day
same,Activity,Mus musculus [11],99 mg/dL
O=C(O)/C=C/c1ccc(O)cc1 [COUMARIC ACID],Activity,Mus musculus [1],1920 mg
same,Activity,Mus musculus [2],143 mg/dL
same,Activity,Mus musculus [3],847 mg
same,Activity,Mus musculus [4],1.67 mEq/L
same,Activity,Mus musculus [5],162 mg/dL
same,Activity,Mus musculus [6],58.2 mg/g
same,Activity,Mus musculus [7],1640 mg
same,Activity,Mus musculus [8],307 mg
same,Activity,Mus musculus [9],761 mg
same,Activity,Mus musculus [10],4.3 g/day
same,Activity,Mus musculus [11],106 mg/dL
O=c1c(O)c(-c2ccc(O)cc2)oc2cc(O)cc(O)c12 [KAEMPFEROL],Activity,Mus musculus [1],2120 mg
same,Activity,Mus musculus [2],149 mg/dL
same,Activity,Mus musculus [3],896 mg
same,Activity,Mus musculus [4],1.72 mEq/L
same,Activity,Mus musculus [5],139 mg/dL
same,Activity,Mus musculus [6],60.3 mg/g
same,Activity,Mus musculus [7],1520 mg
same,Activity,Mus musculus [8],418 mg
same,Activity,Mus musculus [9],804 mg
same,Activity,Mus musculus [10],4.2 g/day
same,Activity,Mus musculus [11],110 mg/dL
O=C(/C=C/c1ccc(O)cc1)OC[C@H]1O[C@@H](Oc2c(-c3ccc(O)cc3)oc3cc(O)cc(O)c3c2=O)[C@H](O)[C@@H](O)[C@@H]1O [TILIROSIDE],Activity,Mus musculus [12],2240 mg
same,Activity,Mus musculus [13],5.7 g/day
same,Activity,Mus musculus [14],1060 mg
same,Activity,Mus musculus [15],108 mg/dL
same,Activity,Mus musculus [16],738 mg and 508 mg
same,Activity,Mus musculus [17],811 mg
same,Activity,Mus musculus [18],141 mg
same,Activity,Mus musculus [19],161 mg/dL
same,Activity,Mus musculus [20],918 mg and 558 mg
same,Activity,Mus musculus [21],4.7 g/day
same,Activity,Mus musculus [1],998 mg and 1450 mg
same,Activity,Mus musculus [22],144 mg/dL
same,Activity,Mus musculus [23],330 mg
same,Activity,Liver,Active
same,Activity,Mus musculus [24],716 mg
same,Activity,Mus musculus [25],1.5 mEq/L
same,Activity,Mus musculus [3],350 mg and 626 mg
same,Activity,Mus musculus [26],5 g/day
same,Activity,Mus musculus [27],1390 mg
same,Activity,Mus musculus [28],1950 mg
same,Activity,Mus musculus [29],1.01 mEq/L
same,Activity,Mus musculus [30],662 mg
same,Activity,Mus musculus [31],5 g/day
same,Activity,Mus musculus [32],60.4 mg/g
same,Activity,Mus musculus [33],102 mg/dL
same,Activity,Mus musculus [34],1490 mg
same,Activity,Mus musculus [35],350 mg
same,Activity,Mus musculus [36],1660 mg
same,Activity,Mus musculus [37],509 mg
same,Activity,Mus musculus [38],812 mg
same,Activity,Mus musculus [39],156 mg/dL
same,Activity,Mus musculus [40],63.9 mg/g
same,Activity,Mus musculus [41],1560 mg
same,Activity,Mus musculus [42],95 mg/dL
same,Activity,Mus musculus [43],1140 mg
same,Activity,Mus musculus [44],46.7 mg/g
same,Activity,Mus musculus [45],2050 mg and 1260 mg
same,Activity,Mus musculus [7],1500 mg
same,Activity,Mus musculus [46],1.17 mEq/L
same,Activity,Mus musculus [47],1590 mg
same,Activity,Mus musculus [8],132 mg and 266 mg
same,Activity,Mus musculus [9],516 mg and 561 mg
same,Activity,Mus musculus [48],30.8 mg/g
same,Activity,Mus musculus [49],1590 mg and 1680 mg
same,Activity,Mus musculus [50],119 mg/dL
same,Activity,Mus musculus [51],5 g/day and 5.4 g/day
same,Activity,Mus musculus [52],284 mg
same,Activity,Mus musculus [53],1.44 mEq/L
same,Activity,Mus musculus [54],169 mg/dL
same,Activity,Mus musculus [55],407 mg
same,Activity,Mus musculus [10],5.3 g/day and 4.22 g/day
same,Activity,Mus musculus [56],745 mg
same,Activity,Mus musculus [57],394 mg and 194 mg
same,Activity,Mus musculus [11],93 mg/dL

# From ChEMBL document CHEMBL1147949, “Potent anti-obese principle from Rosa canina: structural requirements and mode of action of trans-tiliroside” (2007)
